# Reference: patent publication US20190119251A1, “AMIDE-SUBSTITUTED ARYLTRIAZOLE DERIVATIVES AND USES THEREOF” (BAYER PHARMA AKTIENGESELLSCHAFT, priority 2016, published 2019)
# Tests used:
# human V1a receptor = target: T1, human V1a receptor (Homo sapiens, UniProt P37288); assay: Cellular in vitro assay for determining vasopressin receptor activity (V1a cell line, aequorin luminescence); format: cell-based; conditions: for IC50: CHO cell line transfected with the human V1a receptor, agonist [Arg8]-vasopressin at EC50 concentration, read-out: IC50 hV1a; for ratio IC50 hV2/hV1a: ratio of cellular IC50 values, human V2 over human V1a
# T1 construct: expressed in transfected cells; host or cells: CHO K1 (Chinese hamster ovary), also stably transfected with modified aequorin
# Description: (§1) B-1. Cellular In Vitro Assay for Determining Vasopressin Receptor Activity
# (§2) The identification of agonists and antagonists of the V 1 a and V2 vasopressin receptors from humans, rats and dogs as well as the quantification of the activity of the compounds of the invention is carried out using recombinant cell lines. These cell lines originally derive from a hamster's ovary epithelial cell (Chinese Hamster Ovary, CHO K1, ATCC: American Type Culture Collection, Manassas, Va. 20108, USA). The test cell lines constitutively express the human, rat or dog
# (§3) V1 a or V2 receptors. In case of the Gag-coupled V 1 a receptors, cells are also stably transfected with a modified form of the calcium-sensitive photoproteins aequorin (human and rat V1a) or obelin (dog V 1 a), which, after reconstitution with the cofactor coelenterazine, emit light when there are increases in free calcium concentrations [Rizzuto R, Simpson A W, Brini M, Pozzan T, Nature 358, 325-327 (1992); Illarionov B A, Bondar V S, Illarionova V A, Vysotski E S, Gene 153 (2), 273-274 (1995)]. The resulting vasopressin receptor cells react to stimulation of the recombinantly expressed V 1 a receptors by intracellular release of calcium ions, which can be quantified by the resulting photoprotein luminescence. The Gs-coupled V2 receptors are stably transfected into cell lines expressing the gene for firefly luciferase under control of a CRE-responsible promoter. Activation of V2 receptors induces the activation of the CRE-responsive promoter via cAMP increase, thereby inducing the expression of firefly luciferase. The light emitted by photoproteins of V1a cell lines as well as the light emitted by firefly luciferase of V2 cell lines corresponds to the activation or inhibition of the respective vasopressin receptor. The bioluminescence of the cell lines is detected using a suitable luminometer [Milligan G, Marshall F, Rees S, Trends in Pharmacological Sciences 17, 235-237 (1996)].
# Vasopressin V1a Receptor Cell Lines:
# On the day before the assay, the cells are plated out in culture medium (DMEM/F12, 2% FCS, 2 mM glutamine, 10 mM HEPES, 5 μg/ml coelenterazine) in 384-well microtiter plates and kept in a cell incubator (96% humidity, 5% v/v CO2, 37° C.). On the day of the assay, test compounds in various concentrations are placed for 10 minutes in the wells of the microtiter plate before the agonist [Arg^8]-vasopressin at EC50 concentration is added. The resulting light signal is measured immediately in a luminometer.
# (§4) Table 1A below lists individual IC50 values for the compounds of the invention (including racemic mixtures as well as separated enantiomers) that were obtained from cell lines transfected with the human V1a or V2 receptor: […]
# human V2 receptor = target: T2, human V2 receptor (Homo sapiens, UniProt P30518); assay: Cellular in vitro assay for determining vasopressin receptor activity (V2 cell line, CRE-luciferase); format: cell-based; conditions: CHO cell line transfected with the human V2 receptor; agonist [Arg8]-vasopressin at EC50 concentration; 3 hours incubation; read-out: IC50 hV2
# T2 construct: expressed in transfected cells; host or cells: CHO K1 (Chinese hamster ovary) expressing firefly luciferase under a CRE-responsive promoter
# Description: as §1, §2, §3
# Vasopressin V2 Receptor Cell Lines:
# On the day before the assay, the cells are plated out in culture medium (DMEM/F12, 2% FCS, 2 mM glutamine, 10 mM HEPES) in 384-well microtiter plates and kept in a cell incubator (96% humidity, 5% v/v CO2, 37° C.). On the day of the assay, test compounds in various concentrations and the agonist [Arg^8]-vasopressin at EC50 concentration are added together to the wells, and plates are incubated for 3 hours in a cell incubator. Upon addition of the cell lysis reagent Triton™ and the substrate luciferin, luminescence of firefly luciferase is measured in a luminometer.
# as §4
# T2 sequence (P30518 whole entry): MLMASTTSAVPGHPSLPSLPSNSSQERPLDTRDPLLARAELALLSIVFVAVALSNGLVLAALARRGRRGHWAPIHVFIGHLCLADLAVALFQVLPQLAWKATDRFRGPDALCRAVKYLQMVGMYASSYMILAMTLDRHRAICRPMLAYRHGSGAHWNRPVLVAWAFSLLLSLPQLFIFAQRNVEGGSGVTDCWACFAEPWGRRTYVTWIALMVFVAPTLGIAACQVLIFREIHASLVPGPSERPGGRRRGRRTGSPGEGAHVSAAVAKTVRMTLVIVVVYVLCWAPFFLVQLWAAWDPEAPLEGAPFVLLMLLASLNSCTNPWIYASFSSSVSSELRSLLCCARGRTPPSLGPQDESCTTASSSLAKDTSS
# T1 sequence (P37288 whole entry): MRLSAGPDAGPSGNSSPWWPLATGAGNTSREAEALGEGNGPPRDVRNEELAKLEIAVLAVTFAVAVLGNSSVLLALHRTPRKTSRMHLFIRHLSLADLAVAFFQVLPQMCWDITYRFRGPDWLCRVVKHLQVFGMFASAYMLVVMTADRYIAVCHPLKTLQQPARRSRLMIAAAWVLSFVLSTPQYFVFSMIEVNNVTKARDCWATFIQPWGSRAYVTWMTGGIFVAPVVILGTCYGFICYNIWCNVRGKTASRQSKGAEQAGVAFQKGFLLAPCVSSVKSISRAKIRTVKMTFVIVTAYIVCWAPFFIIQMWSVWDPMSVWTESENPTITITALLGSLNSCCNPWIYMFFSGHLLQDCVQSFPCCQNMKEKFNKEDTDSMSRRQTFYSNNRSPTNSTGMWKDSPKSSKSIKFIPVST
Structure (SMILES),IC50 (human V1a receptor) [nM],ratio IC50 hV2/hV1a (human V1a receptor),IC50 (human V2 receptor) [nM]
"CCc1cccnc1-n1nc(Cn2nc(-c3ccc(Cl)cc3)n(C[C@H](O)C(F)(F)F)c2=O)nc1C(N)=O [Example 1, 3-({3-(4-Chlorophenyl)-5-oxo-4-[(2S)-3,3,3-trifluoro-2-hydroxypropyl]-4,5-dihydro-1H-1,2,4-triazol-1-yl}methyl)-1-(3-ethylpyridin-2-yl)-1H-1,2,4-triazole-5-carboxamide]",5.1,1.7,8.73
"Cc1cccnc1-n1nc(Cn2nc(-c3ccc(Cl)cc3)n(C[C@H](O)C(F)(F)F)c2=O)nc1C(N)=O [Example 2, 3-({3-(4-Chlorophenyl)-5-oxo-4-[(2S)-3,3,3-trifluoro-2-hydroxypropyl]-4,5-dihydro-1H-1,2,4-triazol-1-yl}methyl)-1-(3-methylpyridin-2-yl)-1H-1,2,4-triazole-5-carboxamide]",5.15,4.5,23.2
"Cc1cnccc1-n1nc(Cn2nc(-c3ccc(Cl)cc3)n(C[C@H](O)C(F)(F)F)c2=O)nc1C(N)=O [Example 3, 3-({3-(4-Chlorophenyl)-5-oxo-4-[(2S)-3,3,3-trifluoro-2-hydroxypropyl]-4,5-dihydro-1H-1,2,4-triazol-1-yl}methyl)-1-(3-methylpyridin-4-yl)-1H-1,2,4-triazole-5-carboxamide]",6.7,14.0,94
"COc1cccnc1-n1nc(Cn2nc(-c3ccc(Cl)cc3)n(C[C@H](O)C(F)(F)F)c2=O)nc1C(N)=O [Example 4, 3-({3-(4-Chlorophenyl)-5-oxo-4-[(2S)-3,3,3-trifluoro-2-hydroxypropyl]-4,5-dihydro-1H-1,2,4-triazol-1-yl}methyl)-1-(3-methoxypyridin-2-yl)-1H-1,2,4-triazole-5-carboxamide]",7.2,3.8,27
"NC(=O)c1nc(Cn2nc(-c3ccc(Cl)cc3)n(C[C@H](O)C(F)(F)F)c2=O)nn1-c1ncccc1F [Example 5, 3-({3-(4-Chlorophenyl)-5-oxo-4-[(2S)-3,3,3-trifluoro-2-hydroxypropyl]-4,5-dihydro-1H-1,2,4-triazol-1-yl}methyl)-1-(3-fluoropyridin-2-yl)-1H-1,2,4-triazole-5-carboxamide]",17.5,2.6,46
"NC(=O)c1nc(Cn2nc(-c3ccc(Cl)cc3)n(C[C@H](O)C(F)(F)F)c2=O)nn1-c1ccncc1Cl [Example 6, 3-({3-(4-Chlorophenyl)-5-oxo-4-[(2S)-3,3,3-trifluoro-2-hydroxypropyl]-4,5-dihydro-1H-1,2,4-triazol-1-yl}methyl)-1-(3-chloropyridin-4-yl)-1H-1,2,4-triazole-5-carboxamide]",27,14.4,390
"COC(=O)c1cccnc1-n1nc(Cn2nc(-c3ccc(Cl)cc3)n(C[C@H](O)C(F)(F)F)c2=O)nc1C(N)=O [Example 7, Methyl 2-[5-carbamoyl-3-({3-(4-chlorophenyl)-5-oxo-4-[(2S)-3,3,3-trifluoro-2-hydroxypropyl]-4,5-dihydro-1H-1,2,4-triazol-1-yl}methyl)-1H-1,2,4-triazol-1-yl]pyridine-3-carboxylate]",54,6.1,330
"NC(=O)c1nc(Cn2nc(-c3ccc(Cl)cc3)n(C[C@H](O)C(F)(F)F)c2=O)nn1-c1ccncc1F [Example 8, 3-({3-(4-Chlorophenyl)-5-oxo-4-[(2S)-3,3,3-trifluoro-2-hydroxypropyl]-4,5-dihydro-1H-1,2,4-triazol-1-yl}methyl)-1-(3-fluoropyridin-4-yl)-1H-1,2,4-triazole-5-carboxamide]",70,3.5,248
"COc1nccnc1-n1nc(Cn2nc(-c3ccc(Cl)cc3)n(C[C@H](O)C(F)(F)F)c2=O)nc1C(N)=O [Example 9, 3-({3-(4-Chlorophenyl)-5-oxo-4-[(2S)-3,3,3-trifluoro-2-hydroxypropyl]-4,5-dihydro-1H-1,2,4-triazol-1-yl}methyl)-1-(3-methoxypyrazin-2-yl)-1H-1,2,4-triazole-5-carboxamide]",93.5,2.6,245
"NC(=O)c1nc(Cn2nc(-c3ccc(Cl)cc3)n(C[C@H](O)C(F)(F)F)c2=O)nn1-c1cccnc1Cl [Example 10, 3-({3-(4-Chlorophenyl)-5-oxo-4-[(2S)-3,3,3-trifluoro-2-hydroxypropyl]-4,5-dihydro-1H-1,2,4-triazol-1-yl}methyl)-1-(2-chloropyridin-3-yl)-1H-1,2,4-triazole-5-carboxamide]",97.5,1.6,152
"NC(=O)c1nc(Cn2nc(-c3ccc(Cl)cc3)n(C[C@H](O)C(F)(F)F)c2=O)nn1-c1ccccn1 [Example 11, 3-({3-(4-Chlorophenyl)-5-oxo-4-[(2S)-3,3,3-trifluoro-2-hydroxypropyl]-4,5-dihydro-1H-1,2,4-triazol-1-yl}methyl)-1-(pyridin-2-yl)-1H-1,2,4-triazole-5-carboxamide]",115,1.3,150
"Cc1ccnc(Cl)c1-n1nc(Cn2nc(-c3ccc(Cl)cc3)n(C[C@H](O)C(F)(F)F)c2=O)nc1C(N)=O [Example 12, 1-(2-Chloro-4-methylpyridin-3-yl)-3-({3-(4-chlorophenyl)-5-oxo-4-[(2 S)-3,3,3-trifluoro-2-hydroxypropyl]-4,5-dihydro-1H-1,2,4-triazol-1-yl}methyl)-1H-1,2,4-triazole-5-carboxamide]",125,1.2,150
"CCOc1ncccc1-n1nc(Cn2nc(-c3ccc(Cl)cc3)n(C[C@H](O)C(F)(F)F)c2=O)nc1C(N)=O [Example 13, 3-({3-(4-Chlorophenyl)-5-oxo-4-[(2S)-3,3,3-trifluoro-2-hydroxypropyl]-4,5-dihydro-1H-1,2,4-triazol-1-yl}methyl)-1-(2-ethoxypyridin-3-yl)-1H-1,2,4-triazole-5-carboxamide]",135,3.9,525
"NC(=O)c1ccncc1-n1nc(Cn2nc(-c3ccc(Cl)cc3)n(C[C@H](O)C(F)(F)F)c2=O)nc1C(N)=O [Example 14, 3-[5-Carbamoyl-3-({3-(4-chlorophenyl)-5-oxo-4-[(2S)-3,3,3-trifluoro-2-hydroxypropyl]-4,5-dihydro-1H-1,2,4-triazol-1-yl}methyl)-1H-1,2,4-triazol-1-yl]pyridine-4-carboxamide]",152,4.2,638
"NC(=O)c1nc(Cn2nc(-c3ccc(Cl)cc3)n(C[C@H](O)C(F)(F)F)c2=O)nn1-c1cc(Cl)ccn1 [Example 15, 3-({3-(4-Chlorophenyl)-5-oxo-4-[(2S)-3,3,3-trifluoro-2-hydroxypropyl]-4,5-dihydro-1H-1,2,4-triazol-1-yl}methyl)-1-(4-chloropyridin-2-yl)-1H-1,2,4-triazole-5-carboxamide]",175,0.2,35
"NC(=O)c1nc(Cn2nc(-c3ccc(Cl)cc3)n(C[C@H](O)C(F)(F)F)c2=O)nn1-c1ncccn1 [Example 16, 3-({3-(4-Chlorophenyl)-5-oxo-4-[(2S)-3,3,3-trifluoro-2-hydroxypropyl]-4,5-dihydro-1H-1,2,4-triazol-1-yl}methyl)-1-(pyrimidin-2-yl)-1H-1,2,4-triazole-5-carboxamide]",690,3.3,2250
